Measured values taken from US20230340012A1, “NATURAL AND SYNTHETIC COMPOUNDS FOR TREATING CANCER AND OTHER DISEASES” (PACIFIC ARROW LIMITED, priority 2009, published 2023).

Test system: cancer cells
Assay: MTT cytotoxic assay of esterification products (Cytotoxicity activity)
Assay type: cell-based, human
Outline: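 Cytotoxicity was read by MTT (Carmichael method, modified), with cells seeded 24 h ahead of treatment. Sixteen human cancer lines spanning bone, lung, bladder, ovary, colon, pancreas, prostate, skin, mouth, kidney, breast, liver, brain, leukemia and cervix were used. Test samples were acyl chloride esterification products of triterpenes, as mixtures or HPLC-purified compounds.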

[1] = E4A esterified with 2-propenoyl chloride (Ppe = Propenoyl), compounds isolated with HPLC
[2] = E4A esterified with Propionyl chloride (Ppi = Propionyl), compounds isolated with HPLC
[3] = E4A esterified with benzoyl chloride (Ben = benzoyl), compounds isolated with HPLC
[4] = esterification products of core compound E4A with (2E)-2-pentenoyl chloride (2pe = 2-pentenoyl)
[5] = esterification products of core compound E4A with Butyryl chloride (But = Butyryl)
[6] = esterification products of core compound E4A with Decanoyl chloride (Dec = Decanoyl)
[7] = esterification products of core compound E4A with Isobutyryl chloride (Iso = Isobutyryl)
[8] = esterification products of core compound E4A with Myristoyl chloride (Myr = Myristoyl)
[9] = esterification products of core compound E4A with Octanoyl chloride (Oct = Octanoyl)

Row | SMILES | Cytotoxicity activity [1] | Cytotoxicity activity [2] | Cytotoxicity activity [3] | Cytotoxicity activity [4] | Cytotoxicity activity [5] | Cytotoxicity activity [6] | Cytotoxicity activity [7] | Cytotoxicity activity [8] | Cytotoxicity activity [9]
1 | CC1(C)CC2C3=CCC4C5(C)CCC(O)C(C)(COC(=O)c6ccccc6)C5CCC4(C)C3(C)CC(OC(=O)c3ccccc3)C2(COC(=O)c2ccccc2)C(OC(=O)c2ccccc2)C1OC(=O)c1ccccc1 (stereo not drawn) [Compound K16] | weak | weak | weak | weak | weak | weak | weak | weak | weak
2 | CC1(C)CC2C3=CCC4C5(C)CCC(OC(=O)c6ccccc6)C(C)(COC(=O)c6ccccc6)C5CCC4(C)C3(C)CC(OC(=O)c3ccccc3)C2(COC(=O)c2ccccc2)C(O)C1OC(=O)c1ccccc1 (stereo not drawn) [Compound K17] | weak | weak | weak | weak | weak | weak | weak | weak | weak
3 | CC1(C)CC2C3=CCC4C5(C)CCC(OC(=O)c6ccccc6)C(C)(COC(=O)c6ccccc6)C5CCC4(C)C3(C)CC(OC(=O)c3ccccc3)C2(COC(=O)c2ccccc2)C(OC(=O)c2ccccc2)C1O (stereo not drawn) [Compound K18] | weak | weak | weak | weak | weak | weak | weak | weak | weak
4 | CC1(C)CC2C3=CCC4C5(C)CCC(OC(=O)c6ccccc6)C(C)(COC(=O)c6ccccc6)C5CCC4(C)C3(C)CC(OC(=O)c3ccccc3)C2(COC(=O)c2ccccc2)C(OC(=O)c2ccccc2)C1OC(=O)c1ccccc1 (stereo not drawn) [Compound K19] | none | none | none | none | none | none | none | none | none
5 | CC1(C)CC2C3=CCC4C5(C)CCC(O)C(C)(CO)C5CCC4(C)C3(C)CC(O)C2(COC(=O)c2ccccc2)C(OC(=O)c2ccccc2)C1OC(=O)c1ccccc1 (stereo not drawn) [Compound K20] | moderate | moderate | moderate | moderate | moderate | moderate | moderate | moderate | moderate
6 | CC1(C)CC2C3=CCC4C5(C)CCC(O)C(C)(COC(=O)c6ccccc6)C5CCC4(C)C3(C)CC(O)C2(CO)C(OC(=O)c2ccccc2)C1OC(=O)c1ccccc1 (stereo not drawn) [Compound K21] | moderate | moderate | moderate | moderate | moderate | moderate | moderate | moderate | moderate
7 | CC1(C)CC2C3=CCC4C5(C)CCC(O)C(C)(CO)C5CCC4(C)C3(C)CC(OC(=O)c3ccccc3)C2(CO)C(OC(=O)c2ccccc2)C1OC(=O)c1ccccc1 (stereo not drawn) [Compound K22] | moderate | moderate | moderate | moderate | moderate | moderate | moderate | moderate | moderate
8 | CC1(C)CC2C3=CCC4C5(C)CCC(OC(=O)c6ccccc6)C(C)(CO)C5CCC4(C)C3(C)CC(O)C2(CO)C(OC(=O)c2ccccc2)C1OC(=O)c1ccccc1 (stereo not drawn) [Compound K23] | moderate | moderate | moderate | moderate | moderate | moderate | moderate | moderate | moderate
9 | CC1(C)CC2C3=CCC4C5(C)CCC(O)C(C)(CO)C5CCC4(C)C3(C)CC(O)C2(CO)C(OC(=O)c2ccccc2)C1OC(=O)c1ccccc1 (stereo not drawn) [Compound K24] | moderate | moderate | moderate | moderate | moderate | moderate | moderate | moderate | moderate
10 | CC1(C)CC2C3=CCC4C5(C)CCC(O)C(C)(CO)C5CCC4(C)C3(C)CC(O)C2(COC(=O)c2ccccc2)C(O)C1OC(=O)c1ccccc1 (stereo not drawn) [Compound K25] | moderate | moderate | moderate | moderate | moderate | moderate | moderate | moderate | moderate
11 | CC1(C)CC2C3=CCC4C5(C)CCC(O)C(C)(CO)C5CCC4(C)C3(C)CC(O)C2(COC(=O)c2ccccc2)C(OC(=O)c2ccccc2)C1O (stereo not drawn) [Compound K26] | moderate | moderate | moderate | moderate | moderate | moderate | moderate | moderate | moderate
12 | CC1(C)CC2C3=CCC4C5(C)CCC(OC(=O)c6ccccc6)C(C)(CO)C5CCC4(C)C3(C)CC(O)C2(COC(=O)c2ccccc2)C(O)C1O (stereo not drawn) [Compound K27] | moderate | moderate | moderate | moderate | moderate | moderate | moderate | moderate | moderate
13 | CC1(C)CC2C3=CCC4C5(C)CCC(O)C(C)(CO)C5CCC4(C)C3(C)CC(OC(=O)c3ccccc3)C2(COC(=O)c2ccccc2)C(O)C1O (stereo not drawn) [Compound K28] | moderate | moderate | moderate | moderate | moderate | moderate | moderate | moderate | moderate
14 | CC1(C)CC2C3=CCC4C5(C)CCC(O)C(C)(COC(=O)c6ccccc6)C5CCC4(C)C3(C)CC(O)C2(CO)C(O)C1OC(=O)c1ccccc1 (stereo not drawn) [Compound K29] | moderate | moderate | moderate | moderate | moderate | moderate | moderate | moderate | moderate
